Assay results from ChEMBL document CHEMBL1128902, “Selectively deoxygenated sulfated tetrasaccharides as probes for the investigation of smooth muscle cell antiproliferative activity” (1996).

Species on record: Rattus norvegicus
Experiment: Antiproliferative activity against rat smooth muscle cell (SMC) expressed as relative activity compared to heparin; ri is relative inhibitory activity
Assay type: functional

Row | SMILES | Relative inhibitory activity
1 | C[C@@H]1O[C@H](O[C@H]2[C@H](O)[C@H](O)[C@H](O[C@H]3[C@H](O)[C@H](O)[C@@H](O[C@H]4O[C@H](CO)[C@@H](O)[C@@H](O)[C@@H]4O)O[C@H]3CO)O[C@H]2CO)[C@@H](O)[C@@H](O)[C@@H]1O | 0.6
2 | OC[C@H]1O[C@H](O[C@H]2O[C@H](CO)[C@@H](O[C@H]3O[C@H](CO)[C@@H](O[C@H]4O[C@H](CO)[C@@H](O)[C@H](O)[C@H]4O)[C@H](O)[C@H]3O)[C@H](O)[C@H]2O)[C@H](O)[C@@H](O)[C@@H]1O | 0.9
